# Measurements published in patent US20230330134A1, “METHOD OF PROPHYLAXIS OF CORONAVIRUS AND/OR RESPIRATORY SYNCYTIAL VIRUS INFECTION” (Starpharma Pty Ltd., priority 2020, published 2023).
# Like-named read-outs stand apart in the source and are kept apart here.
# Tests used:
# [1] = system: Coronavirus strain NL63 (ZeptoMetrix Corp. #0810228CF); conditions: final 28.76 mg/mL; for CPE in four replicates, Test: Vero
# [2] = system: SARS-CoV-2 (2019-nCoV/USA-WAl/2020 strain); format: in vivo, human ACE2 transgenic mice K18-hACE2; conditions: 1%, 3% or 5% SPL7013 in PBS intranasally for 7 days (0.5, 1.5, 2.5 mg daily); significant vs control at the highest dose
# [3] = system: Coronavirus strain 229E (ATCC #VR-740); conditions: final 28.76 mg/mL; for CPE in four replicates, Test: MRC-5
# [4] = system: MERS-CoV (HCoV-EMC) Spike-pseudotyped GFP reporter lentiviral particles; format: cell-based
# Vero E6 cells [5] = system: Vero E6 cells
# [6] = system: SARS-CoV-2 2019-nCoV/USA-WAl/2020; experiment: Antiviral activity in primary human bronchial epithelial cells (HBEpC); format: cell-based; conditions: 1.1, 3.3 and 10 mg/mL added 1 hour prior to infection, day 4, maximum
# Vero cells = conditions: no virus
# Vero E6 cells [7] = conditions: Day 4
# [8] = target: SARS-CoV-2 spike RBD recombinant protein (Severe acute respiratory syndrome coronavirus 2, UniProt P0DTC2); format: cell-based; conditions: 1 mg/mL in PBS, 1 hour prior to challenge; confocal microscopy
# [9] = rats
# HCT-8 cells = conditions: no virus
# [10] = system: SARS-CoV-2 (2019-nCoV/USA-WA1/2020); experiment: microbe, parasite or virus in culture; format: cell-based; conditions: Day 4 post-infection
# [11] = system: SARS-CoV-2 (hCoV-19/Australia/VIC01/2020); conditions: mixed with virus for 1 hour prior to infection of Vero E6 cells; n=1
# [12] = system: Human Respiratory Syncytial Virus; experiment: Antiviral pre-treatment and post-treatment plaque tests (RSV); format: cell-based, Human respiratory syncytial virus (HRSV); conditions: Hep-2 cells
# Method: The concentrations of the Test Product were prepared using approximately 1:3 dilutions from the starting concentration determined following the cytotoxicity test.
# The host cell culture was washed with PBS, and 1.0 mL aliquots of test product dilutions added to the cells. Cells were then incubated for 1 hour ± 15 minutes for equilibration. After the incubation, 1.0 mL aliquots of virus was added to the wells and incubated for 1 hour ± 15 minutes for virus adsorption. Following incubation, the mixture was removed and replaced with TM. The plates were then incubated in a CO2 incubator. The plates were incubated until viral plaques in the virus control could be microscopically registered (approximately 5-10 days).
# Fixed cells were stained using Crystal Violet stain. Unstained zones of cell lysis (viral plaques) were counted.
# The concentrations of the test product were prepared using approximately 1:3 dilutions from the starting concentration determined following the cytotoxicity test.
# The host cell culture was washed with PBS, and 1.0 mL aliquots of virus added to the wells and incubated for 1 hour ± 15 minutes for virus adsorption. After incubation, virus inoculum was removed and replaced with aliquots of the test product concentrations in TM. The plates were then incubated in a CO2 incubator. The plates were then incubated until viral plaques in the virus control can be microscopically registered (approximately 5-10 days).
# For the cell culture control, intact cell culture monolayers were used as the control of cell viability. The GM was replaced by TM in the cell culture control wells. […] Fixed cells were stained using Crystal Violet stain. Unstained zones of cell lysis (viral plaques) were counted.
# Assessment of antiviral properties: The antiviral properties EC50 and/or EC90 was determined using non-linear regression analysis, GraphPad Prism 5.0 software.
# Calu-3 cells = conditions: Day 4
# [13] = system: SARS-CoV-2 (Wuhan-Hu-1) Spike-pseudotyped GFP reporter lentiviral particles; format: cell-based; conditions: 10 and 30 mg/mL, added 1 hour prior
# [14] = system: Coronavirus strain OC43 (ZeptoMetrix Corp. #0810024CF); conditions: final 28.76 mg/mL; for CPE in four replicates, Test: HCT-8
# [15] = 60 seconds exposure, dilution (-Log10) -6
# [16] = 60 seconds exposure, dilution (-Log10) -7
# [17] = 60 seconds exposure, listed as SPL7013 aqueous solution
# [18] = 60 minutes exposure, dilution (-Log10) -6
# [19] = 60 minutes exposure, dilution (-Log10) -7
substance,measurement,setting,value
astodrimer sodium [SPL7013],"CPE in four replicates, Test",[1]; [15],0000
same,"CPE in four replicates, Test",[1]; [16],0000
same,Log10 Reduction,[1]; 60 seconds exposure,0.50 log10
same,"TCID50 (log10), Test",[1]; 60 seconds exposure,5.25 log10
same,Percent Reduction,[1]; [17],68.38%
same,"CPE in four replicates, Test",[1]; [18],0000
same,"CPE in four replicates, Test",[1]; [19],0000
same,Log10 Reduction,[1]; 60 minutes exposure,0.75 log10
same,Percent Reduction,[1]; 60 minutes exposure,82.22%
same,"TCID50 (log10), Test",[1]; 60 minutes exposure,5.00 log10
same,viral copies (qPCR) in nasal swabs at Day 7,[2],dose dependent decrease
same,"CPE in four replicates, Test",[3]; [15],0000
same,"CPE in four replicates, Test",[3]; [16],0000
same,Log10 Reduction,[3]; 60 seconds exposure,0.75 log10
same,Percent Reduction,[3]; 60 seconds exposure,82.22%
same,"TCID50 (log10), Test",[3]; 60 seconds exposure,5.50 log10
same,"CPE in four replicates, Test","[3]; 60 minutes exposure, dilution (-Log10) -5",+0+0
same,"CPE in four replicates, Test",[3]; [19],0000
same,Log10 Reduction,[3]; 60 minutes exposure,0.75 log10
same,Percent Reduction,[3]; 60 minutes exposure,82.22%
same,"TCID50 (log10), Test",[3]; 60 minutes exposure,5.25 log10
same,"binding/infection of Vero E6 cells by spike-pseudotyped lentivirus (GFP-positive cells, FACS)",[4],potently inhibited
same,cytotoxicity,Vero E6 cells [5],not observed
same,reduction of infection in the plaque assay,[6],up to 95%
same,reduction of infection vs virus control by nucleocapsid ELISA,[6],up to 98%
same,"TCID50 (log10), CTC (Cytotoxicity Control)",Vero cells,1.50 log10
same,"CPE in four replicates, CTC (Cytotoxicity Control)",Vero cells; dilution (-Log10) -2,0000
same,"CPE in four replicates, CTC (Cytotoxicity Control)",Vero cells; dilution (-Log10) -3,0000
same,"CPE in four replicates, CTC (Cytotoxicity Control)",Vero cells; dilution (-Log10) -4,0000
same,CC50,Vero E6 cells [7],15090 µg/mL
same,binding of SARS-CoV-2 spike protein to cells expressing the hACE2 receptor,[8],no detectable binding
same,SPL7013 in pooled plasma sample,"[9]; 1% group, one 3 hr sample (called an aberration)",0.635 µg/mL
same,SPL7013 in pooled plasma samples (LLOQ),"[9]; 1% or 3% Nasal Spray 4 times daily for 7 days, Day 1 and Day 7, pre-dose to 6 hr, all samples but one",< 0.5 µg/mL
same,"TCID50 (log10), CTC (Cytotoxicity Control)",HCT-8 cells,1.50 log10
same,"CPE in four replicates, CTC (Cytotoxicity Control)",HCT-8 cells; dilution (-Log10) -2,0000
same,"CPE in four replicates, CTC (Cytotoxicity Control)",HCT-8 cells; dilution (-Log10) -3,0000
same,"CPE in four replicates, CTC (Cytotoxicity Control)",HCT-8 cells; dilution (-Log10) -4,0000
same,EC50,"[10]; added 1-hour post-infection, Calu-3",30 µg/mL
same,EC50,"[10]; added 1-hour post-infection, Vero E6",19 µg/mL
same,EC50,"[10]; added 1-hour pre-infection, Calu-3",37 µg/mL
same,EC50,"[10]; added 1-hour pre-infection, Vero E6",32 µg/mL
same,EC50,"[10]; added at time of infection, Calu-3",35 µg/mL
same,EC50,"[10]; added at time of infection, Vero E6",20 µg/mL
same,EC50,[11],1830 nM
same,"EC50, Best Fit Value",[12]; Post Treatment,107 µg/mL
same,"EC90, Best Fit Value",[12]; Post Treatment,1159 µg/mL
same,"EC50, Best Fit Value",[12]; PreTreatment,45 µg/mL
same,"EC90, Best Fit Value",[12]; PreTreatment,180 µg/mL
same,CC50,Calu-3 cells,21760 µg/mL
same,"binding/infection of Vero E6 cells by spike-pseudotyped lentivirus (GFP-positive cells, FACS)",[13],potently inhibited
same,"CPE in four replicates, Test",[14]; [15],0000
same,"CPE in four replicates, Test",[14]; [16],0000
same,Log10 Reduction,[14]; 60 seconds exposure,0.50 log10
same,"TCID50 (log10), Test",[14]; 60 seconds exposure,5.50 log10
same,Percent Reduction,[14]; [17],68.38%
same,"CPE in four replicates, Test",[14]; [18],+000
same,"CPE in four replicates, Test",[14]; [19],0000
same,Log10 Reduction,[14]; 60 minutes exposure,0.50 log10
same,Percent Reduction,[14]; 60 minutes exposure,68.38%
same,"TCID50 (log10), Test",[14]; 60 minutes exposure,5.25 log10
